Measured values as given in patent publication US7438931B2, “Methods and compositions for the treatment of angiogenic diseases” (The Regents of The University of Michigan, priority 1998, dated 2008).

Columns and labels:
[1] = cited from earlier work
[2] = human, in vivo; cited from earlier work
[3] = test system: rabbit VX2 carcinoma and rat 9L gliosarcoma; details: implanted intracerebral tumors; cited from earlier work
copper [4] = details: at a cupruresis of 2-3 mg
copper [5] = details: cited from earlier work
copper absorption = details: cited from earlier work
[6] = therapeutic dose 1,000-2,000 mg/day

Question: Which results are given for `[Mo]` [Mo, molybdenum]?
Answer: efficacy ([1]; 5-20 mg/kg/day of Mo for 4-11 months): not effective; toxicity ([1]; 350 to 1400 mg/day (5-20 mg/kg/day) of Mo for 4-11 months): without known toxicity

Question: Which “patients developing an initial hypersensitivity syndrome” value [2] does the source give for `CC(C)(S)[C@@H](N)C(=O)O` [penicillamine] here?
Answer: The value was “a quarter to a third of patients”.

Question: What about the survival [3] of the same compound?
Answer: Its survival is “did not show improved survival over untreated controls”.

Question: Which negative copper balance (copper [4]) does the source give for `NCCNCCNCCN` [trientine] here?
Answer: Its negative copper balance is 1.5 to 2.5 mg/day.

Question: What about the patients with proteinuria (copper [5]; after several weeks of use) of the same compound?
Answer: The patients with proteinuria was “about 20 % of patients”.

Question: What about the “cupruresis after the first few weeks of therapy” value (copper [5]; [6]) of the same compound?
Answer: Its value is 2 to 3 mg.

Question: And the “cupruresis, initial” value (copper [5]; [6])?
Answer: The value was 4 to 5 mg.

Question: With `[Zn]` [zinc] as the compound, how does the toxicity (copper absorption; 150 mg daily, 200 Wilson's disease patients) read?
Answer: The toxicity was “no toxicity at all”.

Question: What about the “copper balance, average” value (copper absorption; at the two week point) of the same compound?
Answer: Its value is −0.35 mg daily.

Question: What about the “time to bring urine copper and nonceruloplasmin plasma copper down to subtoxic levels” value (copper absorption; human, in vivo) of the same compound?
Answer: Its value is “as long as six months”.

Question: And the “time to intestinal metallothionein induction and a negative copper balance” value (copper absorption; human, in vivo)?
Answer: The value was “approximately two weeks”.
